Data reported in patent US9936701B2, “Herbicidal compounds” (Syngenta Participations AG, priority 2013, dated 2018).

Legend:
[1] = test system: a variety of test species; test: Pre-emergence herbicidal activity (glasshouse, sprayed one day after sowing, evaluated after 13 days); format: in vivo; parameters: key: 5=total damage to plant; 0=no damage to plant; conditions: application pre-emergence, rate 1000 g/Ha, scale 0-5
In short: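 Compounds are applied pre-emergence as an aqueous spray, formulated in 50:50 acetone/water containing 0.5% Tween 20, to pots sown one day earlier. Plants grow in a controlled glasshouse and are scored 13 days later for damage from 0 to 5.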

[2] = test system: a variety of test species; test: Post-emergence herbicidal activity (glasshouse, sprayed after 8 days cultivation, evaluated after 13 days); format: in vivo; parameters: key: 5=total damage to plant; 0=no damage to plant; conditions: rate 1000 g/Ha, scale 0-5
In short: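 Pot-grown plants, 8 days after sowing, were sprayed with compound formulated in acetone/water (50:50) with 0.5% Tween 20. Glasshouse conditions 24/16° C day/night, 14 h light, 65% humidity; damage scored after 13 days on a 0 (none) to 5 (total) scale.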

CCC(C)(CC)c1cc(N2C(=O)C(Cl)=C(C)C2O)no1 (centres unmarked) [A43]
Pre-emergence herbicidal damage score, ABUTH [1]: 4
Pre-emergence herbicidal damage score, ALOMY [1]: 4
Pre-emergence herbicidal damage score, AMARE [1]: 5
Pre-emergence herbicidal damage score, ECHCG [1]: 4
Pre-emergence herbicidal damage score, SETFA [1]: 5
Pre-emergence herbicidal damage score, ZEAMX [1]: 2
ABUTH (Abutilon theophrasti) damage score, application post-emergence [2]: 5
ALOMY (Alopecurus myosuroides) damage score, application post-emergence [2]: 5
AMARE (Amaranthus retroflexus) damage score, application post-emergence [2]: 5
ECHCG (Echinochloa crus-galli) damage score, application post-emergence [2]: 5
SETFA (Setaria faberi) damage score, application post-emergence [2]: 5
ZEAMX (Zea mays) damage score, application post-emergence [2]: 2
melting point: 104 to 106 °C

CC1=C(Cl)C(=O)N(c2cc(C(C)(C)C)on2)C1O (centres unmarked) [A2, 1-(5-tert-butylisoxazol-3-yl)-4-chloro-2-hydroxy-3-methyl-2H-pyrrol-5-one]
Pre-emergence herbicidal damage score, ABUTH [1]: 5
Pre-emergence herbicidal damage score, ALOMY [1]: 3
Pre-emergence herbicidal damage score, AMARE [1]: 5
Pre-emergence herbicidal damage score, ECHCG [1]: 5
Pre-emergence herbicidal damage score, SETFA [1]: 5
Pre-emergence herbicidal damage score, ZEAMX [1]: 3
ABUTH (Abutilon theophrasti) damage score, application post-emergence [2]: 5
ALOMY (Alopecurus myosuroides) damage score, application post-emergence [2]: 5
AMARE (Amaranthus retroflexus) damage score, application post-emergence [2]: 5
ECHCG (Echinochloa crus-galli) damage score, application post-emergence [2]: 5
SETFA (Setaria faberi) damage score, application post-emergence [2]: 5
ZEAMX (Zea mays) damage score, application post-emergence [2]: 5
melting point: 156 to 158 °C

CCCC1=C(Br)C(=O)N(c2noc(C(C)(C)C)c2C#N)C1O (centres unmarked) [A51]
Pre-emergence herbicidal damage score, ABUTH [1]: 4
Pre-emergence herbicidal damage score, ALOMY [1]: 3
Pre-emergence herbicidal damage score, AMARE [1]: 5
Pre-emergence herbicidal damage score, ECHCG [1]: 4
Pre-emergence herbicidal damage score, SETFA [1]: 4
Pre-emergence herbicidal damage score, ZEAMX [1]: 3
ABUTH (Abutilon theophrasti) damage score, application post-emergence [2]: 5
ALOMY (Alopecurus myosuroides) damage score, application post-emergence [2]: 4
AMARE (Amaranthus retroflexus) damage score, application post-emergence [2]: 5
ECHCG (Echinochloa crus-galli) damage score, application post-emergence [2]: 5
SETFA (Setaria faberi) damage score, application post-emergence [2]: 5
ZEAMX (Zea mays) damage score, application post-emergence [2]: 3
melting point: 123 to 124 °C

CC1=C(Cl)C(=O)N(c2noc(C(C)C)c2C#N)C1O (centres unmarked) [A44, 3-(4-chloro-2-hydroxy-3-methyl-5-oxo-2H-pyrrol-1-yl)-5-isopropyl-isoxazole-4-carbonitrile]
Pre-emergence herbicidal damage score, ABUTH [1]: 5
Pre-emergence herbicidal damage score, ALOMY [1]: 4
Pre-emergence herbicidal damage score, AMARE [1]: 5
Pre-emergence herbicidal damage score, ECHCG [1]: 4
Pre-emergence herbicidal damage score, SETFA [1]: 5
Pre-emergence herbicidal damage score, ZEAMX [1]: 3
ABUTH (Abutilon theophrasti) damage score, application post-emergence [2]: 5
ALOMY (Alopecurus myosuroides) damage score, application post-emergence [2]: 5
AMARE (Amaranthus retroflexus) damage score, application post-emergence [2]: 5
ECHCG (Echinochloa crus-galli) damage score, application post-emergence [2]: 5
SETFA (Setaria faberi) damage score, application post-emergence [2]: 5
ZEAMX (Zea mays) damage score, application post-emergence [2]: 4
melting point: 117 to 119 °C

CCC(C)(CC)c1onc(N2C(=O)C(Cl)=C(C)C2O)c1C#N (centres unmarked) [A45]
Pre-emergence herbicidal damage score, ABUTH [1]: 4
Pre-emergence herbicidal damage score, ALOMY [1]: 3
Pre-emergence herbicidal damage score, AMARE [1]: 5
Pre-emergence herbicidal damage score, ECHCG [1]: 3
Pre-emergence herbicidal damage score, SETFA [1]: 4
Pre-emergence herbicidal damage score, ZEAMX [1]: 2
ABUTH (Abutilon theophrasti) damage score, application post-emergence [2]: 5
ALOMY (Alopecurus myosuroides) damage score, application post-emergence [2]: 5
AMARE (Amaranthus retroflexus) damage score, application post-emergence [2]: 5
ECHCG (Echinochloa crus-galli) damage score, application post-emergence [2]: 5
SETFA (Setaria faberi) damage score, application post-emergence [2]: 5
ZEAMX (Zea mays) damage score, application post-emergence [2]: 3
melting point: 129 to 130 °C

CC1=C(Cl)C(=O)N(c2cc(C(C)(C)C#N)on2)C1 [A104]
Pre-emergence herbicidal damage score, ABUTH [1]: 5
Pre-emergence herbicidal damage score, ALOMY [1]: 4
Pre-emergence herbicidal damage score, AMARE [1]: 5
Pre-emergence herbicidal damage score, ECHCG [1]: 5
Pre-emergence herbicidal damage score, SETFA [1]: 5
Pre-emergence herbicidal damage score, ZEAMX [1]: 2
ABUTH (Abutilon theophrasti) damage score, application post-emergence [2]: 5
ALOMY (Alopecurus myosuroides) damage score, application post-emergence [2]: 5
AMARE (Amaranthus retroflexus) damage score, application post-emergence [2]: 5
ECHCG (Echinochloa crus-galli) damage score, application post-emergence [2]: 5
SETFA (Setaria faberi) damage score, application post-emergence [2]: 5
ZEAMX (Zea mays) damage score, application post-emergence [2]: 5
melting point: 141 to 143 °C

CCCC1=C(Cl)C(=O)N(c2noc(C(C)(C)CC)c2C#N)C1O (centres unmarked) [A68]
Pre-emergence herbicidal damage score, ABUTH [1]: 4
Pre-emergence herbicidal damage score, ALOMY [1]: 3
Pre-emergence herbicidal damage score, AMARE [1]: 3
Pre-emergence herbicidal damage score, ECHCG [1]: 5
Pre-emergence herbicidal damage score, SETFA [1]: 5
Pre-emergence herbicidal damage score, ZEAMX [1]: 1
ABUTH (Abutilon theophrasti) damage score, application post-emergence [2]: 5
ALOMY (Alopecurus myosuroides) damage score, application post-emergence [2]: 5
AMARE (Amaranthus retroflexus) damage score, application post-emergence [2]: 5
ECHCG (Echinochloa crus-galli) damage score, application post-emergence [2]: 5
SETFA (Setaria faberi) damage score, application post-emergence [2]: 5
ZEAMX (Zea mays) damage score, application post-emergence [2]: 1
melting point: 82 to 84 °C

C=CCNC1=C(Cl)C(=O)N(c2cc(C(C)(C)C)on2)C1O (centres unmarked) [C7]
Pre-emergence herbicidal damage score, ABUTH [1]: 5
Pre-emergence herbicidal damage score, ALOMY [1]: 3
Pre-emergence herbicidal damage score, AMARE [1]: 5
Pre-emergence herbicidal damage score, ECHCG [1]: 5
Pre-emergence herbicidal damage score, SETFA [1]: 3
Pre-emergence herbicidal damage score, ZEAMX [1]: 2
ABUTH (Abutilon theophrasti) damage score, application post-emergence [2]: 5
ALOMY (Alopecurus myosuroides) damage score, application post-emergence [2]: 4
AMARE (Amaranthus retroflexus) damage score, application post-emergence [2]: 5
ECHCG (Echinochloa crus-galli) damage score, application post-emergence [2]: 5
SETFA (Setaria faberi) damage score, application post-emergence [2]: 5
ZEAMX (Zea mays) damage score, application post-emergence [2]: 3
melting point: 163 to 164 °C
